Where only a bound is given, the exact number is not on record here.

17 molecules from patent US11399542B2, “Pesticidally active heterocyclic derivatives with sulfur containing substituents” (SYNGENTA PARTICIPATIONS AG, priority 2017, dated 2022) can be followed below.

What all share (type): in vivo
Assay [1] relates to Diabrotica balteata (Corn Root Worm). Nature of the assay: Example B4: Activity against Diabrotica balteata, sprayed maize sprouts. Particulars: 96 h, application rate 200 ppm, L2 larvae on maize sprouts, 4 days after infestation, read-out: effect in at least one of the two categories (mortality or growth inhibition). The protocol: Maize sprouts placed onto an agar layer in 24-well microtiter plates were treated with aqueous test solutions prepared from 10′000 ppm DMSO stock solutions by spraying. After drying, the plates were infested with L2 larvae (6 to 10 per well). The samples were assessed for mortality and growth inhibition in comparison to untreated samples 4 days after infestation.

Assay [2] relates to Myzus persicae (Green Peach Aphid). Nature of the assay: Example B5: Activity against Myzus persicae, sprayed sunflower leaf discs. The note with it: foliar, 144 h, application rate 200 ppm, mixed-age aphids on sunflower leaf discs, 6 days after infestation. The protocol: Sunflower leaf discs were placed on agar in a 24-well microtiter plate and sprayed with aqueous test solutions prepared from 10′000 ppm DMSO stock solutions. After drying, the leaf discs were infested with an aphid population of mixed ages. The samples were assessed for mortality 6 days after infestation.

For assay [3] the test system is unchanged. Nature of the assay: Example B6: Activity against Myzus persicae, systemic via roots of pea seedlings. Particulars: 144 h, test rate 24 ppm, pea seedling roots in test solution, 6 days. The method, then: Roots of pea seedlings infested with an aphid population of mixed ages were placed directly in the aqueous test solutions prepared from 10′000 DMSO stock solutions. The samples were assessed for mortality 6 days after placing seedlings in test solutions.

Assay [4] concerns Plutella xylostella (Diamond Back Moth). Put plainly: Example B12: Activity against Plutella xylostella, artificial diet, eggs. Particulars: 192 h, application rate 200 ppm, eggs on artificial diet, 8 days after infestation, read-out: effect in at least one of the two categories (mortality or growth inhibition). The protocol: 24-well microtiter plates with artificial diet were treated with aqueous test solutions prepared from 10′000 ppm DMSO stock solutions by pipetting. After drying, Plutella eggs were pipetted through a plastic stencil onto a gel blotting paper and the plate was closed with it. The samples were assessed for mortality and growth inhibition in comparison to untreated samples 8 days after infestation.

In assay [5] the test system is Euschistus heros (Neotropical Brown Stink Bug). Nature of the assay: Example B9: Activity against Euschistus heros, sprayed soybean leaf. Particulars: 120 h, application rate 200 ppm, N2 nymphs on soybean leaf, 5 days after infestation, read-out: effect in at least one of the two categories (mortality or growth inhibition). The method, then:
Soybean leaf on agar in 24-well microtiter plates were sprayed with aqueous test solutions prepared from 10′000 ppm DMSO stock solutions. After drying the leaf were infested with N2 nymphs. The samples were assessed for mortality and growth inhibition in comparison to untreated samples 5 days after infestation.

Assay [6] concerns Spodoptera littoralis (Egyptian Cotton Leaf Worm). Put plainly: Example B1: Activity against Spodoptera littoralis, sprayed cotton leaf discs. The note with it: foliar, 72 h, application rate 200 ppm, L1 larvae on cotton leaf discs, 3 days after infestation, read-out: control (at least one of mortality, anti-feedant effect, growth inhibition). The protocol:
Cotton leaf discs were placed onto agar in 24-well microtiter plates and sprayed with aqueous test solutions prepared from 10′000 ppm DMSO stock solutions. After drying the leaf discs were infested with five L1 larvae. The samples were assessed for mortality, anti-feeding effect, and growth inhibition in comparison to untreated samples 3 days after infestation. Control of Spodoptera littoralis by a test sample is given when at least one of the categories mortality, anti-feedant effect, and growth inhibition is higher than the untreated sample.

Regarding `CCSc1cc2c(nc1-c1nc3cc(C(F)(F)F)cnc3n1C)n(C)c(=O)n2C` [Compound P24, 6-ethylsulfanyl-1,3-dimethyl-5-[3-methyl-6-(trifluoromethyl)imidazo[4,5-b]pyridine-2-yl]imidazo[4,5-b]pyridine-2-one], the percent effect (mortality or growth inhibition) at 200 ppm in assay [1] was no less than 80%.

In assay [2], `CCS(=O)(=O)c1cc2c(cc1-c1nc3cc(C(F)(F)F)cnc3n1C)n(S(=O)(=O)C1CC1)c(=O)n2C` [Compound P13, 1-cyclopropylsulfonyl-5-ethylsulfonyl-3-methyl-6-[3-methyl-6-(trifluoromethyl)imidazo[4,5-b]pyridin-2-yl]benzimidazol-2-one] gave a mortality at 200 ppm of no less than 80%. In addition, in assay [3], the mortality at 24 ppm is no less than 80%.

With `CCS(=O)(=O)c1cc2c(cc1-c1nc3cc(S(=O)(=O)C(F)(F)F)ccc3n1C)n(C)c(=O)n2C` [Compound P37, 5-ethylsulfonyl-1,3-dimethyl-6-[1-methyl-5-(trifluoromethyl-sulfonyl)benzimidazol-2-yl]benzimidazol-2-one], the percent effect (mortality or growth inhibition) at 200 ppm in assay [4] and in assay [5] was no less than 80% throughout. This molecule had a mortality at 200 ppm in assay [2] of no less than 80%.

As for `CCOC(=O)n1c(=O)n(C)c2cc(S(=O)(=O)CC)c(-c3nc4cc(C(F)(F)F)cnc4n3C)cc21` [Compound P23, ethyl 5-ethylsulfonyl-3-methyl-6-[3-methyl-6-(trifluoromethyl)imidazo[4,5-b]pyridine-2-yl]-2-oxo-benzimidazole-1-carboxylate], the percent effect (mortality or growth inhibition) at 200 ppm in assay [1] is no less than 80%. The same molecule had a mortality at 200 ppm in assay [2] of no less than 80%. For the same molecule, in assay [3], the mortality at 24 ppm is no less than 80%.

In assay [2], `CCS(=O)(=O)c1cc2c(cc1-c1nc3cc(C(F)(F)F)nnc3n1C)n(C)c(=O)n2C` [Compound P11, 5-ethylsulfonyl-1,3-dimethyl-6-[7-methyl-3-(trifluoromethyl)imidazo[4,5-c]pyridazin-6-yl]benzimidazol-2-one] returned a mortality at 200 ppm of no less than 80%. Also, in assay [5], the percent effect (mortality or growth inhibition) at 200 ppm was no less than 80%. The molecule further registered a mortality at 24 ppm in assay [3] of no less than 80%.

Molecule `CCS(=O)(=O)c1cc2c(cc1-c1nc3cc(C(F)(F)F)cnc3n1C)n(C(=O)C1CC1)c(=O)n2C` [Compound P20, 1-(cyclopropanecarbonyl)-5-ethylsulfonyl-3-methyl-6-[3-methyl-6-(trifluoromethyl)imidazo[4,5-b]pyridine-2-yl]benzimidazol-2-one] returned a mortality at 200 ppm in assay [2] of no less than 80%.

Regarding `CCS(=O)(=O)c1cc2c(cc1-c1nc3cc(C(F)(F)F)ccc3o1)n(C)c(=O)n2C` [Compound P40, 5-ethylsulfonyl-1,3-dimethyl-6-[5-(trifluoromethyl)-1,3-benzoxazol-2-yl]benzimidazol-2-one], in assay [4], the percent effect (mortality or growth inhibition) at 200 ppm is no less than 80%.

With `CCSc1cc2c(cc1-c1nc3cc(C(F)(F)F)ncc3n1C)n(C)c(=O)n2C` [Compound P10, 5-ethylsulfanyl-1,3-dimethyl-6-[3-methyl-6-(trifluoromethyl)imidazo[4,5-c]pyridin-2-yl]benzimidazol-2-one], the percent effect (mortality or growth inhibition) at 200 ppm in assay [5] is no less than 80%.

Take `CCS(=O)(=O)c1cc2c(cc1-c1nc3cc(SC(F)(F)F)ccc3o1)n(C)c(=O)n2C` [Compound P29, 5-ethylsulfonyl-1,3-dimethyl-6-[5-(trifluoromethylsulfanyl)-1,3-benzoxazol-2-yl]benzimidazol-2-one]: the percent effect (mortality or growth inhibition) at 200 ppm in assay [1], in assay [4] and in assay [5] was no less than 80% each time. Besides, in assay [6], the percent control (mortality, anti-feedant effect or growth inhibition) at 200 ppm was no less than 80%.

For the molecule `CCS(=O)(=O)c1cc2c(nc1-c1nc3cc(SC(F)(F)F)ccc3o1)n(C)c(=O)n2C` [Compound P35, 6-ethylsulfonyl-1,3-dimethyl-5-[5-(trifluoromethylsulfanyl)-1,3-benzoxazol-2-yl]imidazo[4,5-b]pyridin-2-one], the percent effect (mortality or growth inhibition) at 200 ppm in assay [1] and in assay [4] was no less than 80% each time. Also, the percent control (mortality, anti-feedant effect or growth inhibition) at 200 ppm in assay [6] was no less than 80%.

Take `CCS(=O)(=O)c1cc2c(nc1-c1nc3cc(S(=O)(=O)C(F)(F)F)ccc3o1)n(C)c(=O)n2C` [Compound P26, 6-ethylsulfonyl-1,3-dimethyl-5-[5-(trifluoromethylsulfonyl)-1,3-benzoxazol-2-yl]imidazo[4,5-b]pyridine-2-one]: the percent effect (mortality or growth inhibition) at 200 ppm in assay [1] and in assay [4] was no less than 80% in each case. Also, the percent control (mortality, anti-feedant effect or growth inhibition) at 200 ppm in assay [6] is no less than 80%.

With `CCS(=O)(=O)c1cc2c(cc1-c1nc3cc(C(F)(F)F)cnc3n1C)n(CC(F)(F)F)c(=O)n2C` [Compound P19, 6-ethylsulfonyl-1-methyl-5-[3-methyl-6-(trifluoromethyl)imidazo[4,5-b]pyridine-2-yl]-3-(2,2,2-trifluoroethyl) benzimidazol-2-one], the percent effect (mortality or growth inhibition) at 200 ppm in assay [1] and in assay [5] was no less than 80% each time. Moreover, the mortality at 200 ppm in assay [2] was no less than 80%. In assay [3], this molecule returned a mortality at 24 ppm of no less than 80%. Moreover, the percent control (mortality, anti-feedant effect or growth inhibition) at 200 ppm in assay [6] was no less than 80%.

For the molecule `CCS(=O)(=O)c1cc2c(cc1-c1nc3cc(C(F)(F)F)cnc3n1C)n(CSC)c(=O)n2C` [Compound P17, 6-ethylsulfonyl-1-methyl-3-(methylsulfanylmethyl)-5-[3-methyl-6-(trifluoromethyl)imidazo[4,5-b]pyridine-2-yl]benzimidazol-2-one], the mortality at 200 ppm in assay [2] was no less than 80%. In addition, in assay [5], the percent effect (mortality or growth inhibition) at 200 ppm was no less than 80%. In addition, in assay [3], the mortality at 24 ppm is no less than 80%.

`CCS(=O)(=O)c1cc2c(cc1-c1nc3cc(S(=O)(=O)C(F)(F)F)ccc3o1)n(C)c(=O)n2C` [Compound P25, 5-ethylsulfonyl-1,3-dimethyl-6-[5-(trifluoromethylsulfonyl)-1,3-benzoxazol-2-yl]benzimidazol-2-one]: the percent effect (mortality or growth inhibition) at 200 ppm in assay [1], in assay [4] and in assay [5] was no less than 80% throughout. Further, in assay [6], the percent control (mortality, anti-feedant effect or growth inhibition) at 200 ppm was no less than 80%.

For the molecule `CCSc1cc2c(cc1-c1nc3cc(SC(F)(F)F)ccc3n1C)n(C)c(=O)n2C` [Compound P42, 5-ethylsulfanyl-1,3-dimethyl-6-[1-methyl-5-(trifluoromethyl-sulfanyl)benzimidazol-2-yl]benzimidazol-2-one], the percent effect (mortality or growth inhibition) at 200 ppm in assay [4] and in assay [5] was no less than 80% throughout.

Turning to `CCS(=O)(=O)c1cc2c(cc1-c1nc3cc([S+]([O-])C(F)(F)F)ccc3n1C)n(C)c(=O)n2C` (centres unmarked) [Compound P44, 5-ethylsulfonyl-1,3-dimethyl-6-[1-methyl-5-(trifluoromethyl-sulfinyl)benzimidazol-2-yl]benzimidazol-2-one], the percent effect (mortality or growth inhibition) at 200 ppm in assay [4] and in assay [5] was no less than 80% each time. The same molecule showed a mortality at 200 ppm in assay [2] of no less than 80%. Besides, the mortality at 24 ppm in assay [3] is no less than 80%.

Regarding `CCS(=O)(=O)c1cc2c(nc1-c1nc3cc([S+]([O-])C(F)(F)F)ccc3n1C)n(C)c(=O)n2C` (centres unmarked) [Compound P43, 6-ethylsulfonyl-1,3-dimethyl-5-[1-methyl-5-(trifluoromethyl-sulfinyl)benzimidazol-2-yl]imidazo[4,5-b]pyridin-2-one], the percent effect (mortality or growth inhibition) at 200 ppm in assay [4] and in assay [5] was no less than 80% each time. In assay [2], this molecule yielded a mortality at 200 ppm of no less than 80%. This molecule also showed a mortality at 24 ppm in assay [3] of no less than 80%.
